# In patent US20120135053A1, “NANOPARTICULATE TELMISARTAN COMPOSITIONS AND PROCESS FOR THE PREPARATION THEREOF” (priority 2009, published 2012):
# Where two headings read alike, the source gives them in different places.
# Experiments:
# [1] = tested on: plasma proteins, mainly albumin and α1—acid glycoprotein; settings: cited from earlier work
# [2] = in vivo; settings: male, Wistar, rat, po, 30 mg/kg
# Experimental: Both test substances were administered via gastric tube in a dosing volume of 5 ml/kg. The vehicle of the test items was sterile 0.9% NaCl solution and the suspension was kept homogenous by continuous stirring during treatment in order to minimize the error resulting from the sedimentation.
# Male Wistar rats (purchased from Laboratory Animal Center, University of Szeged) were maintained on a standard pellet rodent diet (Bioplan Ltd, Isaszeg, Hungary) under temperature and light-controlled conditions with tap water available ad libitum. The acclimatization period was at least 4 days. […] All animals were fasting for 16 hours before oral treatment. […] Water was available immediately after treatment for all animals. […] Serum samples were prepared by centrifugation (7000 rpm, 10 min, 4° C.) of the clotted blood within 60 minutes and were stored at −20° C. till analysis.
# An aliquot of 200 μl serum was combined with 20 μl of internal standard working solution and 1.2 ml acetonitrile for protein precipitation. The mixture was vortexed for 1 min and centrifuged at 12000 rpm for 10 min at 4° C. The supernatants were evaporated to dryness under a stream of nitrogen at 40° C. and reconstituted with 200 μl of water—methanol (50:50 v/v) and 20 μl was injected into the HPLC system.
# Unpaired t-test was used to statistically compare the serum concentrations belonging to the same time points. […]
# [3] = Comparative dissolution test in distillate water; type: physicochemical; settings: UV-VIS
# Experimental: The suspension was stirred for 1, 5, 10, 20 and 60 minutes and then it was filtered by 0.2 μm disposable syringe filter. Telmisartan concentration was determined by UV-VIS spectrophotometer (Agilent 8453).
# [4] = cited from earlier work
# [5] = Visual observation of wettability by stereomicroscope; type: physicochemical; settings: one drop of distillate water on 0.1 mg powder
# [6] = cited from earlier work; remark: listed apart in the source
smiles,measurement,setting,value
"CCCc1nc2c(C)cc(-c3nc4ccccc4n3C)cc2n1Cc1ccc(-c2ccccc2C(=O)O)cc1 [Telmisartan, 4′-[(1,4′-dimethyl-2′-propyl [2,6′-bi-1H-benzimidazol]-1′-yl)methyl]-[1,1′-biphenyl]-2-carboxylic acid]",plasma protein binding,[1],> 99.5%
same,AUC,[2],15700 ng·h/mL
same,dissolved Telmisartan content,[3],cannot be detected
same,reduction in AUC by food,[4]; 40 mg tablet,about 6%
same,absolute bioavailability,[4]; 40 mg,42%
same,reduction in AUC by food,[4]; 160 mg dose,about 20%
same,absolute bioavailability,[4]; 160 mg,58%
same,glucuronide share of the measured radioactivity in plasma,[4]; after a single dose,approximately 11%
same,involvement of cytochrome P450 isoenzymes in metabolism,[4]; in vivo,not involved
same,terminal elimination half life,[4]; in vivo,approximately 24 hours
same,total plasma clearance,[4]; in vivo,> 800 mL/min
same,volume of distribution,[4]; in vivo,approximately 500 liters
same,"amount found in urine, % of total radioactivity",[4]; intravenous 14C-labeled Telmisartan,0.91%
same,administered dose eliminated unchanged in feces via biliary excretion,[4]; intravenous or oral 14C-labeled Telmisartan,> 97%
same,"plasma concentrations with once daily dosing, % of peak plasma concentrations",[4]; once daily dosing,10-25%
same,"amount found in urine, % of total radioactivity",[4]; oral 14C-labeled Telmisartan,0.49%
same,accumulation index in plasma,[4]; repeated once daily dosing,1.5 to 2.0
same,wettability,[5],stayed in their aggregated state
same,solubility,[6]; hydrochloric acid,insoluble
same,solubility,[6]; strong acid,sparingly soluble
same,solubility,[6]; strong base,soluble
same,solubility,[6]; water and pH range of 3 to 9,practically insoluble
